Experimental data as given in patent publication US9174995B2, “Pyrrolotriazinone derivatives” (Merck Patent GmbH, priority 2012, dated 2015).

Legend:
[1] = biological target: T1, GST-tagged Tankyrase-1 (1023-1327 aa) (Homo sapiens, UniProt O95271); experiment: Tankyrase 1 autoparsylation assay (HTRF enzyme assay); type: biochemical
T1 construct: GST-tagged Tankyrase-1 (1023-1327 aa)
Description: (§1) Biochemical Activity Testing of Tankyrase 1 and 2: Autoparsylation Assay
(§2) The autoparsylation assay is run in two steps: the enzymatic reaction in which GST-tagged Tankyrase-1, resp Tankyrase-2 transferred biotinylated ADP-ribose to itself from biotinylated NAD as co-substrate and the detection reaction where a time resolved FRET between cryptate labelled anti-GST bound to the GST tag of the enzyme and Xlent® labelled-streptavidin bound the biotin-parsylation residue is analysed. The autoparsylation activity was detectable directly via the increase in HTRF signal.
(§3) The autoparsylation assay is performed as 384-well HTRF® (Cisbio, Codolet, France) assay format in Greiner low volume nb 384-well microtiter plates and is used for high throughput screen. 250 nM GST-tagged Tankyrase-1 (1023-1327 aa), respectively about 250 nM GST-tagged Tankyrase-2 (873-1166 aa) and 5 μM bio-NAD (Biolog, Life science Inst., Bremen, Germany) as co-substrate are incubated in a total volume of 5 μl (50 mM HEPES, 4 mM Mg-chloride, 0.05% Pluronic F-68, 1.4 mM DTT, 0.5% DMSO, pH 7.7) in the absence or presence of the test compound (10 dilution concentrations) for 90 min at 30° C. The reaction is stopped by the addition of 1 μl 50 mM EDTA solution. 2 μl of the detection solution (1.6 μM SA-Xlent® (Cisbio, Codolet, France), 7.4 nM Anti-GST-K® (Eu-labelled anti-GST, Cisbio, Codolet, France) in 50 mM HEPES, 800 mM KF, 0.1% BSA, 20 mM EDTA, 0.1% CHAPS, pH 7.0) are added. After 1 h incubation at room temperature the HTRF is measured with an Envision multimode reader (Perkin Elmer LAS Germany GmbH) at excitation wavelength 340 nm (laser mode) and emission wavelengths 615 nm and 665 nm. The ratio of the emission signals is determined. The full value used is the inhibitor-free reaction. The pharmacological zero value used is XAV-939 (Tocris) in a final concentration of 5 μM. The inhibitory values (IC50) are determined using either the program Symyx Assay Explorer® or Condosseo® from GeneData.

[2] = biological target: T2, GST-tagged Tankyrase-2 (873-1166 aa) (Homo sapiens, UniProt Q9H2K2); experiment: Tankyrase 2 autoparsylation assay (HTRF enzyme assay); type: biochemical
T2 construct: GST-tagged Tankyrase-2 (873-1166 aa)
T2 sequence (Q9H2K2 873-1166): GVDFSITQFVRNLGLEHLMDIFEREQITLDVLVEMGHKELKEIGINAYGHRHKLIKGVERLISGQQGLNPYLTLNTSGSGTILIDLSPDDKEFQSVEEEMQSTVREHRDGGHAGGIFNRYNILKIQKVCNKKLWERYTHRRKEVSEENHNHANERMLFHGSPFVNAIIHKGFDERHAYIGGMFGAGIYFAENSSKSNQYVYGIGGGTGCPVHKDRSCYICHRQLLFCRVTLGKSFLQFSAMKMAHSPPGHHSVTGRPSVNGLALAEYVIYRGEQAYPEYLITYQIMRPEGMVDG
Description: as §1, §2, §3

Tankyrases = experiment: Cellular inhibition of Tankyrase: increase of Axin2 level in DLD1 cells (Luminex); type: cell-based; details: 24 hours, read-out: EC50 tankyrase ½ (cell assay)
Description: Measurement of Cellular Inhibition of Tankyrase
Since Tankyrases have been described to modulate cellular level of Axin2 (Huang et al., 2009; Nature) the increase of Axin2 level is used as readout for determination of cellular inhibition of Tankyrases in a Luminex based assay.
Cells of the colon carcinoma cell line DLD1 are plated in 96 well plates with 1.5×10^4 cells per well. Next day, cells are treated with a serial dilution of test compound in seven steps as triplicates with a final DMSO concentration of 0.3%. After 24 hours, cells are lysed in lysis buffer (20 mM Tris/HCl pH 8.0, 150 mM NaCl, 1% NP40, 10% Glycerol) and lysates are cleared by centrifugation through a 96 well filter plate (0.65 μm). Axin2 protein is isolated from cell lysates by incubation with a monoclonal anti-Axin2 antibody (R&D Systems #MAB6078) that is bound to fluorescent carboxybeads. Then, bound Axin2 is specifically detected with a polyclonal anti-Axin2 antibody (Cell Signaling #2151) and an appropriate PE-fluorescent secondary antibody. The amount of isolated Axin2 protein is determined in a Luminex^200 machine (Luminex Corporation) according to the manufacturer's instruction by counting 100 events per well. Inhibition of Tankyrase by test compounds results in higher levels of Axin2 which directly correlates with an increase of detectable fluorescence. As controls cells are treated with solvent alone (neutral control) and with a Tankyrase reference inhibitor IWR-2 (3E-06 M) which refers as control for maximum increase of Axin2. For analysis, the obtained data are normalized against the untreated solvent control and fitted for determination of the EC50 values using the Assay Explorer software (Accelrys).

[3] = biological target: T3, GST-tagged Tnks-1 (1023-1327 aa) (Homo sapiens, UniProt O95271); experiment: TNKS1 activity ELISA (autoparsylation assay); type: biochemical
T3 construct: GST-tagged Tnks-1 (1023-1327 aa, prepared in-house); made in house
T3 sequence (O95271 1023-1327): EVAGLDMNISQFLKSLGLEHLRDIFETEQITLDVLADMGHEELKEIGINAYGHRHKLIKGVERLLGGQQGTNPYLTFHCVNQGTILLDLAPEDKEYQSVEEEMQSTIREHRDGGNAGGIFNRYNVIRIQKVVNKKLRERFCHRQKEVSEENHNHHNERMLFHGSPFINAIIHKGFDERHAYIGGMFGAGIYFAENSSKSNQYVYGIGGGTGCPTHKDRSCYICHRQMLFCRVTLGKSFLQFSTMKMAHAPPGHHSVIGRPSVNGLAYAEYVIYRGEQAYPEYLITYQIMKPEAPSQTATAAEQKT
Description: (§4) Description of the TNKS1 and TNKS2 ELISA Assay
(§5) Biochemical Activity Testing of TNKS 1 and 2: Activity ELISA (Autoparsylation Assay)
(§6) For analysis of autoparsylation activity of TNKS 1 and 2 an activity ELISA is performed: In the first step GST tagged TNKS is captured on a Glutathione coated plate. Then the activity assay with biotinylated NAD is performed in the absence/presence of the compounds. During the enzymatic reaction GST tagged TNKS transfers biotinylated ADP-ribose to itself from biotinylated NAD as co-substrate. For the detection streptavidin-HRP conjugate is added that binds to the biotinylated TNKS and is thereby captured to the plates. The amount of biotinylated resp. autoparsylated TNKS is detected with a luminescence substrate for HRP. The level of the luminescence signal correlats directly with the amount of autoparsylated TNKS and therefore with activity of TNKS.
(§7) The activity ELISA is performed in 384 well Glutathione coated microtiter plates (Express capture Glutathione coated plate, Biocat, Heidelberg, Germany). The plates are pre-equilibrated with PBS. Then the plates are incubated with 50 μl 20 ng/well GST-tagged Tnks-1 (1023-1327 aa, prepared in-house), respectively GST-tagged Tnks-2 (873-1166 aa, prepared in-house) in assay buffer (50 mM HEPES, 4 mM Mg-chloride, 0.05% Pluronic F-68, 2 mM DTT, pH 7.7) overnight at 4° C. The plates are washed 3 times with PBS-Tween-20. The wells are blocked by incubation at room temperature for 20 minutes with 50 μl blocking buffer (PBS, 0.05% Tween-20, 0.5% BSA). Afterwards the plates are washed 3 times with PBS-Tween-20. The enzymatic reaction is performed in 50 μl reaction solution (50 mM HEPES, 4 mM Mg-chloride, 0.05% Pluronic F-68, 1.4 mM DTT, 0.5% DMSO, pH 7.7) with 10 μM bio-NAD (Biolog, Life science Inst., Bremen, Germany) as co-substrate in the absence or presence of the test compound (10 dilution concentrations) for 1 hour at 30° C. The reaction is stopped by 3 times washing with PBS-Tween-20. For the detection 50 μl of 20 ng/μl Streptavidin, HRP conjugate (MoBiTec, Göttingen, Germany) in PBS/0.05%Tween-20/0.01%BSA are added and the plates are incubated for 30 minutes at room temperature. After three times washing with PBS-Tween-20 50 μl of SuperSignal ELISA Femto Maximum sensitivity substrate solution (ThermoFisherScientific (Pierce), Bonn, Germany) are added. Following a 1 minute incubation at room temperature luminescence signals are measured with an Envision multimode reader (Perkin Elmer LAS Germany GmbH) at 700 nm. The full value used is the inhibitor-free reaction. The pharmacological zero value used is XAV-939 (Tocris) in a final concentration of 5 μM. The inhibitory values (IC50) are determined using either the program Symyx Assay Explorer® or Condosseo® from GeneData.

[4] = biological target: T4, GST-tagged Tnks-2 (873-1166 aa) (Homo sapiens, UniProt Q9H2K2); experiment: TNKS2 activity ELISA (autoparsylation assay); type: biochemical
T4 construct: GST-tagged Tnks-2 (873-1166 aa, prepared in-house); made in house
T4 sequence (Q9H2K2 873-1166): as the sequence (Q9H2K2 873-1166) above
Description: as §4, §5, §6, §7

DLD-1-cancer cells = details: cited from earlier work

T1 sequence (O95271 1023-1327): as the sequence (O95271 1023-1327) above

SMILES | IC50 [1] | IC50 [2] | EC50 (Tankyrases) | IC50 [3] | IC50 [4] | growth of DLD-1-cancer cells (DLD-1-cancer cells)
CC(C)(N)c1ccc(-c2nn3cccc3c(=O)[nH]2)cc1 [Compound A16, 2-[4-(1-amino-1-methyl-ethyl)-phenyl]-3H-pyrrolo[2,1-f][1,2,4]-triazin-4-one] | 0.3 to 3 µM | 0.3 to 3 µM | – | – | – | –
CC(C)(O)c1ccc(-c2nn3c(C(F)(F)F)ccc3c(=O)[nH]2)cc1 [Compound A20, 2-[4-(1-hydroxy-1-methyl-ethyl)-phenyl]-7-trifluoromethyl-3H-pyrrolo[2,1-f][1,2,4]triazin-4-one] | 0.3 to 3 µM | 3 to 50 µM | – | – | – | –
O=c1[nH]c(-c2ccc(Br)cc2)nn2cccc12 [Compound A6, 2-(4-bromo-phenyl)-3H-pyrrolo[2,1-f][1,2,4]triazin-4-one] | < 0.3 µM | < 0.3 µM | – | – | – | –
COC(=O)c1ccc(-c2nn3cccc3c(=O)[nH]2)cc1 [Compound A2, 4-(4-oxo-3,4-dihydro-pyrrolo[2,1-f][1,2,4]triazin-2-yl)-benzoic acid methyl ester] | < 0.3 µM | < 0.3 µM | 0.3 to 3 µM | – | – | –
Cc1ccc2c(=O)[nH]c(-c3ccc(C(C)(C)O)cc3)nn12 [Compound A19, 2-[4-(1-hydroxy-1-methyl-ethyl)-phenyl]-7-methyl-3H-pyrrolo[2,1-f][1,2,4]triazin-4-one] | < 0.3 µM | < 0.3 µM | < 0.3 µM | – | – | –
Cc1cc2c(=O)[nH]c(-c3ccc(C(C)(C)O)cc3)nn2n1 [Compound A17, 6-[4-(1-hydroxy-1-methyl-ethyl)-phenyl]-2-methyl-5H-1,5,7,7a-tetraaza-inden-4-one] | 0.3 to 3 µM | 0.3 to 3 µM | 3 to 50 µM | 0.3 to 3 µM | 0.3 to 3 µM | –
Cc1ccc(-c2nn3cccc3c(=O)[nH]2)cc1 [Compound A1, 2-p-tolyl-3H-pyrrolo[2,1-f][1,2,4]triazin-4-one] | < 0.3 µM | < 0.3 µM | – | < 0.3 µM | < 0.3 µM | –
CC(C)(C)c1ccc(-c2nn3cccc3c(=O)[nH]2)cc1 [Compound A3, 2-(4-tert-butyl-phenyl)-3H-pyrrolo[2,1-f][1,2,4]triazin-4-one] | < 0.3 µM | 0.3 to 3 µM | 0.3 to 3 µM | – | – | –
Oc1nc(-c2ccc(C(F)(F)F)cc2)nc2c1CSCC2 [XAV939] | – | – | – | – | – | inhibits growth
